# Results published in patent US11571411B2, “Use of a bisamide derivative of malonic acid for treating allergic and other diseases in humans and animals” (PHARMENTERPRISES ALLERGY LLC, priority 2018, dated 2023).
# Legend:
# [1] = biological target: T1, human histamine receptor type 3 (Homo sapiens, UniProt Q9Y5N1); assay: Effect on activity of histamine receptor type 3 (intracellular cAMP, CHO cells); type: cell-based; details: preincubation with histamine, read-out: IC50, antagonist of histamine receptor type 3
# T1 construct: expressed in transfected cells; host or cells: CHO cells
# [2] = biological target: T1, human histamine receptor type 3; assay: Binding of radiolabeled ligand [3H]Nα-methylhistamine to histamine receptor type 3; details: CHO cells, [3H]Nα-methylhistamine (1 nM)
# [3] = biological target: T2, human histamine receptor type 4 (Homo sapiens, UniProt Q9H3N8); assay: Binding of radiolabeled ligand [3H] histamine to histamine receptor type 4; details: HEK-293 cells, [3H] histamine (10 nM)
# T2 construct: expressed in transfected cells; host or cells: HEK-293 cells
# [4] = test system: ovalbumin-induced allergic rhinitis model; assay: Ovalbumin-induced allergic rhinitis model in guinea pigs, oral administration; type: in vivo, guinea pig; details: intragastrically; for Number of nose scratchings / Number of sneezes: within 2 hours after ovalbumin
# Experimental: Int Immunopharmacol. 2013. V.17(1). P.18-25]. Guinea pigs (250-300 g) were immunized with 4× (on days 0, 7, 14 and 21) intraperitoneal administration of a mixture of ovalbumin (100 μg/pig) and aluminum hydroxide (5 mg/pig), diluted and suspended in saline. On day 28 of the study, an ovalbumin solution (60 mg/ml) was injected intranasally to the animals, 20 μl into each nostril. On day 35, after shaving the skin on the back, the animals were intradermally injected with an ovalbumin solution (200 μg/ml, 25 μl). […] On day 42 of the study, an ovalbumin solution (60 mg/ml, 20 μl/nostril) was administered intranasally. A group of sham-immunized animals was formed in order to control the formation of allergic inflammation: the pigs received an aluminum hydroxide solution (5 mg/pig) on days 0, 7, 14 and 21, a saline solution on days 28 and 35, and an ovalbumin solution (60 mg/ml, 20 μl/nostril) on day 42. Table 1 presents data on clinical manifestations of pathology and the number of eosinophils in the lavage fluid in guinea pigs on the allergic rhinitis experimental model after oral administration (M±m, n=10)
# Compound I was administered to animals intragastrically 48, and 1 hour before intranasal administration of ovalbumin. Clinical manifestations of rhinitis were assessed within 2 hours after the last administration of ovalbumin: the numbers of sneezes and nose scratchings were counted. In addition, eosinophils were counted in the nasal lavage fluid.
# [5] = test system: histamine-induced nasal congestion model; assay: Histamine-induced nasal congestion model in dogs, nasal administration of 1% solution; type: in vivo, Beagle dogs; details: 1% solution intranasally
# Experimental: A histamine-induced nasal congestion model in dogs was performed according to the standard procedure [Tiniakov R. L., Tiniakova O. P., McLeod R. L., Hey J. A., Yeates D. B. Canine model of nasal congestion and allergic rhinitis//J Appl Physiol. 2003. V.94(5). P.1821-1828]. Beagle dogs were injected to the nasal cavity with a 5% histamine solution in a volume of 250 μl/nostril. The volume of the nasal cavity of the right and left nostrils was measured using a rhinometer before and 5, 10, 15, 20, 30, 40, 50 and 60 minutes after administration of histamine. Five experiments were carried out in which Compound I was administered intranasally once in the form of a 1% solution in a volume of 50 μl at different time periods: 1) 5 minutes after the administration of histamine; 2) right before administration of histamine; 3) 3 hours before administration of histamine; 4) […] administration of histamine; and 5) 8 hours before administration of histamine.
# T1 sequence (Q9Y5N1 whole entry): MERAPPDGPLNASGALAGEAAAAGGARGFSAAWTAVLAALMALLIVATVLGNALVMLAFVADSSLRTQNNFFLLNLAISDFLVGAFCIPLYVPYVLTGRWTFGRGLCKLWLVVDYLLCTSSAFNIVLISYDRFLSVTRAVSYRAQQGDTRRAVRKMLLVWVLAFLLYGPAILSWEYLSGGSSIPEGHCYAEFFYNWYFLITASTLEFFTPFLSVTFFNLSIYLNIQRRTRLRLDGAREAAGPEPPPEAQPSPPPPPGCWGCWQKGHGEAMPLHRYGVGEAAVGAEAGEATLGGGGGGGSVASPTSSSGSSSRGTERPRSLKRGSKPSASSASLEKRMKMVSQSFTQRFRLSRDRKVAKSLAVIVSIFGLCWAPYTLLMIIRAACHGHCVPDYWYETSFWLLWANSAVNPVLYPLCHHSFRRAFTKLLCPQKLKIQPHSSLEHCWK
# T2 sequence (Q9H3N8 whole entry): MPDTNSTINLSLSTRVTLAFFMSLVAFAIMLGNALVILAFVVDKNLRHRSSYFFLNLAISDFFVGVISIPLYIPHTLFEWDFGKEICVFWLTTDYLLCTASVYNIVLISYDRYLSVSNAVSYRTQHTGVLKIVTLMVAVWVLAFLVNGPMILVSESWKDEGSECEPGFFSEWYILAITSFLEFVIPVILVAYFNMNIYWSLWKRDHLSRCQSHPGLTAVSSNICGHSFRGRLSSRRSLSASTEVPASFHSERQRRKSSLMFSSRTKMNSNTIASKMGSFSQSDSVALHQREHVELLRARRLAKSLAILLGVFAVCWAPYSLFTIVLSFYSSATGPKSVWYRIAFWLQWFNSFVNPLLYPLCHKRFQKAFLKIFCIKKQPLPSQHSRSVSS
compound,measurement,setting,value
"O=C(CC(=O)NCCc1cnc[nH]1)NCCc1cnc[nH]1 [Compound I, N,N′-bis(2-(1H-imidazol-5-yl)ethyl)malonamide]",IC50,[1],20 µM
same,Ki,[2],2.7 µM
same,Ki,[3],16 µM
same,Number of eosinophils per 1 μL of lavage fluid,[4]; 0.014 mg/kg,1300.5 ± 93.8*#& per 1 μL
same,Number of nose scratchings,[4]; 0.014 mg/kg,16.1 ± 2*#&
same,Number of sneezes,[4]; 0.014 mg/kg,11.6 ± 1.4*#&
same,Number of eosinophils per 1 μL of lavage fluid,[4]; 0.042 mg/kg,1219.6 ± 159.4*#& per 1 μL
same,Number of nose scratchings,[4]; 0.042 mg/kg,16.2 ± 2.7*&
same,Number of sneezes,[4]; 0.042 mg/kg,10.5 ± 1.2*#&
same,Number of eosinophils per 1 μL of lavage fluid,[4]; 0.14 mg/kg,1141.5 ± 128.5*#& per 1 μL
same,Number of nose scratchings,[4]; 0.14 mg/kg,13.3 ± 1.3*&
same,Number of sneezes,[4]; 0.14 mg/kg,8.3 ± 0.9*#&
same,Number of eosinophils per 1 μL of lavage fluid,[4]; 0.42 mg/kg,1069.0 ± 139.4*#& per 1 μL
same,Number of nose scratchings,[4]; 0.42 mg/kg,16.2 ± 2.0*#&
same,Number of sneezes,[4]; 0.42 mg/kg,5.2 ± 0.6*&
same,Number of eosinophils per 1 μL of lavage fluid,[4]; 1.4 mg/kg,984.1 ± 111.0*#& per 1 μL
same,Number of nose scratchings,[4]; 1.4 mg/kg,14.4 ± 3.3*&
same,Number of sneezes,[4]; 1.4 mg/kg,6.9 ± 0.8*#&
same,duration of the therapeutic effect,[5],at least 8 hours
same,onset time of the therapeutic effect,[5],no more than 5 minutes
